Source: article PMC12713470, “Design and Synthesis of Novel Chalcone Derivatives Targeting Bladder and Liver Cancer: Cytotoxicity Evaluation and Preliminary Mechanistic Studies” (ACS Omega, 2025)

Tests used:
T24 cells [1] = experiment: Cell migration (wound), T24; format: cell-based, human; settings: highest concentration tested, 48 h
Description: The cells were cultured in DMEM (Sigma-Aldrich, St. Louis, USA) and supplemented with 10% fetal bovine serum (Cultilab Ltda., Campinas, Brazil) and antibiotics (amphotericin). They were incubated at 37 °C in a humidified atmosphere with 5% CO2. Control cell groups, which were not exposed to the compound, were included in the experiments and were conducted in triplicate. The chalcone was dissolved in dimethyl sulfoxide (DMSO) for the assays.
Cells were seeded in 24-well plates at a density of 1.0 × 10^5 cells per well and incubated for 24 h to allow attachment. After this incubation, a sterile 200 μL pipet tip was used to scrape the cell monolayer, creating a wound. The initial wound area was photographed using an inverted microscope equipped with a camera. Following this, the cells were washed with Hanks’ solution and treated with the glycosylated chalcone at concentrations of 2.15, 4.62, 9.25, and 18.50 μM for 48 h. At the end of the treatment period, the cells were photographed again, and migration into the wound area was assessed. The percentage of cell migration was quantified using ImageJ and GraphPad Prism software.

T24 cells [2] = experiment: Morphology assay, T24; format: cell-based, human; settings: 2.15-18.50 μM, 48 h
Description: For the morphology assay, 2.0 × 10^5 cells were cultured in 12-well plates for 24 h to allow adherence. After this period, the cells were treated with the chalcone at concentrations of 2.15, 4.62, 9.25, and 18.50 μM for 48 h. After treatment, the cells were examined and photographed under an inverted microscope at 200× magnification.

## CCCc1cc(/C=C/C(=O)c2ccc(C)cc2)c(OC)c(OC)c1 [compound 3, (E)-3-(2,3-Dimethoxy-5-propylphenyl)-1-(p-tolyl)-prop-2-en-1-one]
T24 cells [1]
  cell migration, T24: significant decrease was observed
T24 cells [2]
  morphology, T24: reduction in cell density was observed
